Measurements published in patent US20040192641A1, “Special preparation of anticancer drugs made by novel nanotechnology” (priority 2003, published 2004).

Columns and labels:
L1210 = assay: Growth of transplanted tumor, L1210 (tumor weight); assay type: in vivo, mice; conditions: 20 mg/kg i.p. from second day, tumor weight on 12th day
Method: (§1) Male mice, weight 20-22 g, were used in the experiment. 1×10^7 tumor cells were injected to mouse and PK-HHT-NP injected intraperitoneally began second day. All mice were sacrificed on the 12th days, isolated the tumor and weighed and calculated the inhibition rate of tumor weight.
(§2) Male mice, weight 20-22 g, were used in the experiment. 1×10^7 tumor cells were injected to mouse and CUR and PK-CUR-NP injected intraperitoneally began second day. All mice were sacrificed on the 12th days, isolated the tumor and weighed and calculated the inhibition rate of tumor weight.
(§3) Male mice, weight 20-22 g, were used in the experiment. 1×10^7 tumor cells were injected to mouse and ELE injected intraperitoneally began second day. All mice were sacrificed on the 12th days, isolated the tumor and weighed and calculated the inhibition rate of tumor weight.
(§4) Male mice, weight 20-22 g, were used in the experiment. 1×10^7 tumor cells were injected to mouse and CPT injected intraperitoneally began second day. All mice were sacrificed on the 12th days, isolated the tumor and weighed and calculated the inhibition rate of tumor weight.

Walker 256 = assay: Growth of transplanted tumor, Walker 256 (tumor weight); assay type: in vivo, mice; conditions: 20 mg/kg i.p. from second day, tumor weight on 12th day
Method: as §1, §2, §3, §4

Hela = assay: Inhibition of tumor cell proliferation, Hela; assay type: cell-based, human; conditions: 72 hours
Method: (§5) Human tumor cell lines: Hela leukemia HL-60, malignant melanocarcinoma B16, oral epidermoid carcinoma (KB), lung carcinoma (A549), breast carcinoma MCF-7, adenocarcinoma of stomach.
(§6) Animal tumor cell lines: Walker carcinoma, LLC-WRC-256, malignant melanoma (RMMI 1846), 3T3, and S-180 sarcoma (CCRF-180). All lines were routinely cultured in the RPMI1640 medium supplemented 20% fetal calf serum. The experiment was carried out in 96 microplate, each well had 5×10^5 cells and given desired concentration of 1 μg/ml (1×10^−6 g/ml) drug. Then the plate was incubated at 37° C. in an atmosphere of humidified air enriched with 5 percent carbon dioxide for 72 hours.
(§7) Inhibition percent rate of tumor cell proliferation was obtained according to the bellow formula. [formula]
as §6, with “hours. Concentration of CUR or PK-CUR-NP is 50ng/ml.” for “hours.”
as §6, with “hours. Concentration of ELE or PK-ELE-NP is 50 ng/ml.” for “hours.”
as §6, with “hours. Concentration of CPT or PK-CPT-NP is 50 ng/ml.” for “hours.”

[1] = test system: Human promyelocytic leukemia cells (HL-60); assay: Induced differentiation of HL-60 cells (NBT reduction); assay type: cell-based; conditions: 0.1 μg/ml (10×10^−7 g/ml)
Method: (§8) Human promyelocytic leukemia cells (HL-60) were grown in RPMI Medium 1640 supplemented with 10% (v/v) heat-inactivated FBS (56° C. for 30 min) at 37° C. in a humidified 95% air/5% CO2 atmosphere. Cells were seeded at a level of 2×10^5 cells/ml. Cells were allowed to attain a maximum density of 1.2×10^6 cells/ml before being passed by dilution into fresh medium to a concentration of 2×10^5 cells/ml. Differentiation was induced in HL-60 cells by treatment with 0.1 μg/ml ([…]) of CUR or PK-CUR-NP. Cell differentiation was measured by the ability of cells to reduce NBT.
as §8, with “ELE” for “CUR”, “PK-ELE-NP.” for “PK-CUR-NP.”, “NBT. Increasing NBT % means that cancer cells are differentiation.” for “NBT.”
as §8, with “CPT” for “CUR”, “PK-CPT-NP.” for “PK-CUR-NP.”, “NBT. Increasing NBT % means that cancer cells are differentiation.” for “NBT.”

[2] = test system: oral epidermoid carcinoma (KB); assay: Inhibition of tumor cell proliferation, KB; assay type: cell-based, human; conditions: 72 hours; for Inhibition (%): 50 ng/ml
Method: as §5, §6, §7
as §6, with “hours. Concentration of CUR or PK-CUR-NP is 50ng/ml.” for “hours.”
as §6, with “hours. Concentration of ELE or PK-ELE-NP is 50 ng/ml.” for “hours.”
Animal tumor cell lines: Walker carcinoma, LLC-WRC-256, malignant melanoma (RMMI 1846), 3T3, and S-180 sarcoma (CCRF-180). All lines were routinely cultured in the RPMI1640 medium supplemented 20% fetal calf serum. […]

[3] = mice, I.P. (injection in abdominal cavity)

**Q.** Which “Inhibition (%) of transplanted tumor” value (L1210) does the source give for `CC[C@@]1(O)C(=O)OCc2c1cc1n(c2=O)Cc2cc3ccccc3nc2-1` [CPT, Camptothecin] here?
**A.** 68.5 ± 9.8%

**Q.** And the “Inhibition (%) of transplanted tumor” value (Walker 256)?
**A.** 71.8 ± 10.4%

**Q.** And the inhibition at 0.05 µg/mL (Hela; Homo sapiens, HeLa, 50 ng/ml)?
**A.** 60.8 ± 12.2%

**Q.** And the LD50 (Acute toxicity LD50; mouse, in vivo, ip)?
**A.** 76 mg/kg

**Q.** And the “NBT % (percentage of cells capable of reducing NBT)” value [1]?
**A.** 65.8 ± 9.1%

**Q.** With `C=C1C[C@@]2(O)O[C@@]3(C[C@H]2C(C)C)[C@@H](C)CC[C@@H]13` [CUR, Curcumol] as the molecule, how does the “Inhibition (%)” value [2] read?
**A.** 60.8 ± 9.1%

**Q.** What about the “Inhibition (%) of transplanted tumor” value (L1210) of the same molecule?
**A.** 70.8 ± 9.0%

**Q.** And the “Inhibition (%) of transplanted tumor” value (Walker 256)?
**A.** 59.8 ± 8.5%

**Q.** And the “Inhibition (%)” value (Hela; 50 ng/ml)?
**A.** 67.2 ± 10.4%

**Q.** What about the LD50 (Acute toxicity LD50; [3]) of the same molecule?
**A.** 325 mg/kg

**Q.** What about the “NBT % (percentage of cells capable of reducing NBT)” value [1] of the same molecule?
**A.** 68.5 ± 8.5%

**Q.** Which inhibition at 1 µg/mL ([2]; Homo sapiens, 1 μg/ml) does the source give for `COC(=O)C[C@](O)(CCCC(C)(C)O)C(=O)O[C@@H]1C(OC)=C[C@]23CCCN2CCc2cc4c(cc2[C@H]13)OCO4` [HHT, Homoharringtonine] here?
**A.** 80 ± 8.5%

**Q.** And the “Inhibition (%) of transplanted tumor” value (L1210)?
**A.** 87 ± 9%

**Q.** And the “Inhibition (%) of transplanted tumor” value (Walker 256)?
**A.** 83 ± 9%

**Q.** What about the inhibition at 1 µg/mL (Hela; Homo sapiens, HeLa, 1 μg/ml) of the same molecule?
**A.** 75.6 ± 8%

**Q.** And the LD50 (Acute toxicity LD50; mouse, in vivo, ip)?
**A.** 3.3 ± 0.29 mg/kg

**Q.** What does the source list for Eelemene?
**A.** Inhibition (%) [2]: 60.2 ± 13.2%; Inhibition (%) of transplanted tumor (L1210): 71.8 ± 9.5%; Inhibition (%) of transplanted tumor (Walker 256): 60.8 ± 8.9%; Inhibition (%) (Hela; 50 ng/ml): 69.8 ± 11.2%; LD50 (Acute toxicity LD50; [3]): 318 mg/kg; NBT % (percentage of cells capable of reducing NBT) [1]: 69.5 ± 10.1%
